According to a melting point compilation (Tetko et al.; mined from patent text by program, amines drawn as free bases though some values may be those of a salt):

Row | Structure (SMILES) | melting point
1 | COC1=NS(=O)(=O)N(C)C(Cl)=N1 | 77 to 83 °C
2 | CC12CCC(O)CC1CCC1C2CCC2(C)C(C=NNC(N)=O)CCC12O (stereo not drawn) | 222 to 226 °C
3 | N#CC1(N)CCc2cccc(Cl)c2C1 (stereo not drawn) | 67 to 69 °C
4 | CC1(C)OC(=O)c2c(O)cccc21 | 128 to 134 °C
5 | COC1=CC(C=C(C#N)C(=O)O)CC(OC)=C1OC (stereo not drawn) | 102 to 105 °C
6 | O=C(CN1CC=C(c2c[nH]c3cc(Cl)ccc23)CC1)Nc1ccccn1 | 202 to 204 °C
7 | Nc1c(F)c(N2CC(O)C2)c(F)c2c1c(=O)c(C(=O)O)cn2C1CC1 | 271 to 275 °C
8 | Cc1c(F)c(F)cc(C(N)=O)c1F | 105 to 108 °C
9 | COc1nc(NNc2nc(OC)nc(OC)n2)nc(OC)n1 | 222 to 224 °C
10 | O=c1[nH]nc2c3c(cccc13)N=C(CN1CCCN(Cc3ccc(F)cc3)CC1)N2 | 163 to 165 °C
11 | CC(C)(C)Nc1nc(C(F)(F)F)c(C(=O)Cl)o1 | 52 to 60 °C
12 | CC(=O)c1cc(Cl)c(N)c(C#N)c1F | 180 to 182 °C
13 | O=C1c2cc3nnn(Cc4nc5ccccc5s4)c(=O)c3cc2OC2CCCN12 (stereo not drawn) | 224 to 227 °C
14 | CCCCCCCCCCCCCCNC1=NS(=O)(=O)c2sc(Cl)cc2N1 | 157 to 158 °C
15 | CCN(C(=O)OC(C)(C)C)c1cnn(C(C)(C)C)c1Cl | 50 to 52 °C
16 | Cc1cccc2c(=O)n(C)c(-c3ccc(OC4CCN(C5CCC5)CC4)cc3)nc12 | 152 to 154 °C

Row | Structure (SMILES) | melting point
17 | N#Cc1ccc2ccn(C3CCN(CCc4ccc(F)cc4)CC3)c2c1 | 131 to 132 °C
18 | CC(=O)N1N=C(c2ccc(N)c(C)c2)c2cc3c(cc2C[C@H]1C)OCO3 | 123 to 130 °C
19 | Cn1cc(C(F)(F)F)c(CS(=O)(=O)C2=NOC(C)(C)C2)n1 | 125 to 126 °C
20 | CC(O)C1CCC2C3CC=C4CC(N)CCC4(C)C3CCC12C (stereo not drawn) | 160 °C
21 | COc1ccccc1CN[C@H]1CCCN[C@H]1C1CCCCC1 (relative stereo) | > 225 °C
22 | Nc1c(I)c(-c2ccccc2)nn1-c1c(Cl)cc(C(F)(F)F)cc1Cl | 162 to 164 °C
23 | CCN(CC)CCCn1[nH]c(C)c2c(=O)nc(-c3ccncc3)nc1-2 | 164 to 166 °C
24 | FC(F)(F)c1ccc2nc(N3CCN(c4ncccc4Cl)CC3)[nH]c2c1 | 208 to 210 °C
25 | CC(C)(C)c1cc(C(=O)NN(C(=O)O)C(C)(C)C)cc(C(C)(C)C)c1O | 196 °C
26 | Cn1c(C(F)(F)F)cc(=O)n(-c2ccc3snc(CF)c3c2)c1=O | 201 to 202 °C
27 | COC1C=C2CC(OC(C)=O)CCC2(C)C2CCC3(C)C(=O)CCC3C12 (stereo not drawn) | 175 to 178 °C
28 | COC(=O)C(CCCc1cc(C(C)(C)C)c(O)c(C(C)(C)C)c1)S(=O)(=O)C(CCCc1cc(C(C)(C)C)c(O)c(C(C)(C)C)c1)C(=O)OC (stereo not drawn) | 68 to 69 °C
29 | CSCc1cnc2c(C)cccc2c1O | 226 to 228 °C
30 | COC(=O)C1CCc2ccc(O)cc2C1 (stereo not drawn) | 83 to 84 °C
31 | Cc1sc(-n2cccc2)c(C#N)c1C | 45 °C
32 | CCOC(=O)C1=C(C)NC(C)=C([N+](=O)[O-])C1c1cccnc1 (stereo not drawn) | 264 °C

Further lines, results first:

Row | melting point | Structure (SMILES)
33 | > 250 °C | Cc1ccnc2[nH]c(=O)c(CC(=O)O)cc12
34 | 83 to 84 °C | C=C(C)C(=O)c1nc(S(=O)C(C)C)n(-c2ccc(CC)cc2)c1Cl (stereo not drawn)
35 | 234 to 238 °C | N[C@@H](Cc1cn(Cc2ccccc2)cn1)C(=O)O
36 | 198 to 200 °C | O=C(Nc1ccc(S(=O)(=O)C(F)(F)F)cc1Cl)c1cc(S(=O)c2ccc(F)cc2)c2ccccc2c1O (stereo not drawn)
37 | 224 to 227 °C | COc1ccc(C(=O)Nc2ccccc2)c(NS(=O)(=O)c2ccc([N+](=O)[O-])cc2)c1
38 | 197 to 198 °C | CCOC(=O)c1c(CCl)nc2cc3c(cc2c1-c1ccc(OC)c(OC)c1)OCCO3
39 | 74 to 76 °C | ClCc1ccc(OCc2ccccc2)cc1
40 | 221 to 222 °C | COc1ccc2[nH]cc(CC(=O)N3CCN(c4ccc(NC(=N)c5cccs5)cc4)CC3)c2c1
41 | 156 to 160 °C | C=C1c2ccccc2CC(=NO)c2ccccc21
42 | 77 to 78 °C | CCNC(=O)c1ccc(Cc2ccccc2)cn1
43 | 149 to 154 °C | O=C(c1ccccc1)N1CCC2(CC1)Cc1ccccc1C2=O
44 | 68 to 70 °C | CN1CCc2cc(Cl)c(N)cc2[C@@H](c2ccccc2)C1
45 | 85 to 86 °C | CC(C)=CCN(c1ccc(OCc2ccccc2)cc1)C1CCN(C(=O)C2CN(C)CCN2CCC(C)C)CC1 (stereo not drawn)
46 | 169 to 171 °C | Nc1c(C(=O)O)cnn1-c1ccc(Cl)cc1
47 | 85 to 87 °C | CCN1c2cscc2CNc2ccccc21
48 | 138 to 139 °C | CCc1ccc(S(=O)(=O)Nc2cccnc2Nc2ccccc2)cc1
49 | 114 to 116 °C | Cc1ccccc1OCC1CO1 (stereo not drawn)
50 | 147 to 148 °C | CCC(C(=O)O)c1ccc2c(=O)c3ccccc3ccc2c1 (stereo not drawn)
51 | 62 °C | Cc1ccc(S(=O)(=O)NCCCC(NS(=O)(=O)c2ccc(-c3ccc(Cl)cc3)cc2)C(=O)O)cc1 (stereo not drawn)
52 | 181 to 182 °C | COc1cc(COc2nn(-c3ccccc3)cc2/C=C/c2csc(C)n2)ccc1OCc1nc(-c2ccc(CC(=O)O)cc2)oc1C
53 | 115 to 117 °C | COC(=N)NC(=O)Nc1ccc(Cl)cc1

Row | melting point | Structure (SMILES)
54 | 97 °C | O=c1oc2ccccc2c(OCCN2CCOCC2)c1-c1ccccc1
55 | 195 to 198 °C | CCOC(=O)c1cn(Cc2ccc(-c3ccccc3-c3nnnn3C(c3ccccc3)(c3ccccc3)c3ccccc3)cc2)c2sc(CC)cc2c1=O
56 | 207 to 210 °C | O=P(O)(O)Cc1cc(Cl)c(Oc2ccc(O)c(Cc3ccc(F)cc3)c2)c(Cl)c1
57 | 131 to 132 °C | CCCC/C(=C\C(=O)O)c1cnc(CCCC)n1Cc1ccccc1Cl
58 | 168 to 170 °C | Cc1cc(-n2ncc(-c3ccc(S(C)(=O)=O)cc3)c(-c3ccc(F)cc3)c2=O)ccc1F
59 | 137 to 138 °C | CCOC(=O)c1c[nH]cc1-c1ccc(Cl)cc1
60 | 152 to 154 °C | CC(O)(C(=O)Nc1ccc(S(=O)(=O)F)cc1)C(F)(F)F (stereo not drawn)
61 | 230 to 232 °C | O=C(Nc1nc2c(s1)CC(N1CCN(c3ccccn3)CC1)CC2)c1ccccc1 (stereo not drawn)
62 | 86 to 88 °C | CCC(C)(C)NC(Nc1ccc2c(c1)OCO2)=C(C#N)S(C)(=O)=O
63 | 168 °C | CC(C)(C)OC(=O)Nc1nc2cc(N)ccc2[nH]1
64 | 182 to 183 °C | CCCCS(=O)(=O)Nc1cc(C(=O)Nc2ccccc2)ccc1OC
65 | 89 to 90 °C | COC(=O)C(=CNc1ccc(F)c(F)c1OCC(C)OS(=O)(=O)c1ccc(C)cc1)C(=O)OC (stereo not drawn)
66 | 144 to 145 °C | Cc1cc(C)cc(CN(C)C2CCCn3c2c(-c2ccccc2)c2cc(C)c(C)cc2c3=O)c1 (stereo not drawn)
67 | 82 to 85 °C | CC1(O)CC(=O)OC(CCc2ccc(OCc3ccccc3)cc2)C1 (stereo not drawn)
68 | 113 to 115 °C | Fc1cccc(C2OC3(CCN(Cc4ccccc4)CC3)N3CCCCC23)c1 (stereo not drawn)
69 | 95 to 96 °C | CC(=O)N1CCC(CCC(=O)c2ccc(F)cc2)CC1
70 | 93 °C | Cc1cccc(-c2nc3ccc(OCCN(C)C)cc3n2Cc2ccccc2C(F)(F)F)c1
71 | 81 to 82 °C | O=C(O)c1cc(Cl)cc(Oc2cccc(C(F)(F)F)c2)n1
72 | 202 °C | Cc1c(C(=O)O)cnn1-c1ccc([N+](=O)[O-])cc1
73 | 138 to 140 °C | NC(=O)N(O)CCOc1ccc2c(c1)CCN(CCCc1ccc(F)cc1)C2=O
